Values after ≈ are worked out from the molar mass of the structure shown. Read-outs that look alike come from different tables or passages of the source.
Assays:
[1] = test system: M. tuberculosis (Mtb) (H37Rv, ATCC 27294); experiment: microbe, parasite or virus in culture; type: cell-based; details: Mycobacterium tuberculosis
[2] = Cytotoxicity against THP1 macrophage cell lines; type: cell-based; details: human
[3] = test system: Mtb H37Rv; experiment: In vivo mouse efficacy, established murine TB model; design: species or system Balb/c mice; details: for Mean log lung CFU ± SEM / log reduction at 100 mg/kg / log reduction at 25 mg/kg: 5 animals; for Efficacy compared with PA-824, in words: significance at P<0.05; for log reduction at 100 mg/kg / log reduction at 25 mg/kg: Mycobacterium tuberculosis, H37RV, po, 672 h, read-out: Mean log lung CFU reduction ± SEM compared to untreated controls; for Dose dependence of efficacy, in words: 25 versus 100 mg/kg oral daily for 4 weeks
Procedure: In vivo mouse efficacy studies were determined after intranasal infection of Balb/c mice with 10^3 cfu Mtb H37Rv. Treatment was initiated 4 weeks after infection. Compounds were orally administered in CM-2 formulation for 4 weeks daily. Bacterial loads were determined at 2 and 4 weeks post treatment. Statistical analysis was done by a one-way analysis of variance, followed by a multiple comparison analysis of variance by a one-way Tukey test (GraphPad Prism, version 5.02, San Diago, California USA, www.graphpad.com). Differences were considered statistically significant at the 95% level of confidence.

[4] = female, CD-1, mouse, in vivo, po
[5] = in vivo; details: female, CD-1, mouse, po
[6] = in vivo; details: female, CD-1, mouse, iv; for clearance: i.v. CL
[7] = in vivo; details: female, CD-1, mouse, po; remark: listed apart in the source
[8] = physchem; details: pH 6.8, aqueous buffer, thermodynamic from solid
[9] = physchem
[10] = in vitro; details: human, Caco-2
[11] = in vitro; details: mouse, plasma
[12] = In vivo lung PK after oral dosing; details: female, CD-1, mouse
[13] = In vivo plasma PK after intravenous dosing; details: mice; for half-life: female, CD-1, mouse, plasma, iv, T1/2 (i.v)
[14] = In vivo plasma PK after oral dosing in CM-2 formulation; details: female, CD-1, mouse, plasma, po
[15] = cited from earlier work
[16] = female, CD-1, mouse, in vivo, po, 25 mg/kg
[17] = not given; remark: listed apart in the source
[18] = 100 mg/kg oral daily for 4 weeks
[19] = 10 mg/kg, Lung to Plasma ratio AUC24
[20] = 10 mg/kg, Lung to Plasma ratio Cmax
[21] = 10 mg/kg, i.v. dosing at 10 mg/kg
[22] = 25 mg/kg oral daily for 4 weeks
[23] = 25 mg/kg, Lung to Plasma ratio AUC24
[24] = 25 mg/kg, Lung to Plasma ratio Cmax
[25] = 5 mg/kg, i.v. dosing at 5 mg/kg

O=[N+]([O-])c1cn2c(n1)OC[C@@H](NCc1ccc(OC(F)(F)F)cc1)C2 [Amino-824, ((s)-2-nitro-6,7-dihydro-5H-imidazo[2,1-b][1,3]oxazin-6-yl)-(4-trifluoromethoxybenzyl)amine]
MIC99 [1]: 0.14 µg/mL (≈ 0.391 µM)
CC50 [2]: > 10 µg/mL
Mean log lung CFU ± SEM [3, 18]: 5.14±0.08 log CFU
Efficacy compared with PA-824, in words [3, 18]: significantly (P<0.05) less efficacious than PA-824
log reduction at 100 mg/kg [3, 18]: 1.08 ± 0.08
PAMPA %FA: 91%
PAMPA Log Pe: –4.8 cm/sec
Lung AUC24 ([4]; 10 mg/kg): 4.5 µg·h/g
Lung Cmax ([4]; 10 mg/kg): 1.4 µg/g
AUC ([5]; 10 mg/kg): 6000 ng·h/mL
Cmax ([5]; 10 mg/kg): 1700 ng/mL
bioavailability ([5]; 10 mg/kg): 74%
Vd ([6]; 10 mg/kg): 2.3 L/kg
clearance ([6]; 10 mg/kg): 20.5 mL/min/kg
Kp [7, 19]: 0.8
Kp [7, 20]: 0.8
solubility [8]: 127 µg/mL (≈ 354 µM)
logP [9]: 2.5
Papp A→B [10]: 35.4 ×10⁻⁶ cm/s
Papp B→A [10]: 21 ×10⁻⁶ cm/s
efflux ratio [10]: 0.6
fraction unbound [11]: 0.2
half-life ([12]; 10 mg/kg): 78 min
half-life [13, 21]: 120 min
half-life ([14]; 10 mg/kg): 120 min

CC[C@H]1OC(=O)[C@H](C)[C@@H](O[C@H]2C[C@@](C)(OC)[C@@H](O)[C@H](C)O2)[C@H](C)[C@@H](O[C@@H]2O[C@H](C)C[C@H](N(C)C)[C@H]2O)[C@](C)(O)C[C@@H](C)CN(C)[C@H](C)[C@@H](O)[C@]1(C)O [Azithromycin]
AUC lung/serum [15]: 21
Vss [15]: 33 L/kg

O=C(CO[C@@H]1COc2nc([N+](=O)[O-])cn2C1)N1CCN(c2ccc(OC(F)(F)F)cc2)CC1 [NI-622]
MIC99 [1]: 0.18 µg/mL (≈ 0.382 µM)
CC50 [2]: > 10 µg/mL
Mean log lung CFU ± SEM [3, 22]: 5.77±0.08 log CFU
Efficacy compared with PA-824, in words [3, 22]: significantly (P<0.05) less efficacious than PA-824
Mean log lung CFU ± SEM [3, 18]: 5.85±0.11 log CFU
Efficacy compared with PA-824, in words [3, 18]: significantly (P<0.05) less efficacious than PA-824
Dose dependence of efficacy, in words [3]: no dose-dependent increase in bactericidal activity
log reduction at 25 mg/kg [3, 22]: 0.48 to 0.89
log reduction at 100 mg/kg [3, 18]: 0.81 ± 0.11
PAMPA %FA: 31%
PAMPA Log Pe: –5.3 cm/sec
Lung AUC24 ([4]; 50 mg/kg): 71.1 µg·h/g
Lung Cmax ([4]; 50 mg/kg): 10.2 µg/g
AUC ([5]; 50 mg/kg): 108000 ng·h/mL
Cmax ([5]; 50 mg/kg): 14800 ng/mL
bioavailability ([5]; 50 mg/kg): 100%
Vd ([6]; 10 mg/kg): 1.8 L/kg
clearance ([6]; 10 mg/kg): 14.7 mL/min/kg
Kp ([7]; 50 mg/kg, Lung to Plasma ratio AUC24): 0.7
Kp ([7]; 50 mg/kg, Lung to Plasma ratio Cmax): 0.7
solubility [8]: 28.2 µg/mL (≈ 59.8 µM)
logP [9]: 2.9
Papp A→B [10]: 9.5 ×10⁻⁶ cm/s
Papp B→A [10]: 12.4 ×10⁻⁶ cm/s
efflux ratio [10]: 1.3
fraction unbound [11]: 0.03
half-life ([12]; 50 mg/kg): 108 min
half-life [13, 21]: 108 min
half-life ([14]; 50 mg/kg): 126 min

COc1nc2ccc(Br)cc2cc1[C@@H](c1ccccc1)[C@@](O)(CCN(C)C)c1cccc2ccccc12 [TMC207]
AUC L/P ratio ([15]; lungs): 22

O=[N+]([O-])c1cn2c(n1)OC[C@@H](NCCc1ccc(OC(F)(F)F)cc1)C2 [AminoEthyl-824]
MIC99 [1]: 0.06 µg/mL (≈ 0.161 µM)
CC50 [2]: > 10 µg/mL
Mean log lung CFU ± SEM [3, 18]: 4.53±0.07 log CFU
Efficacy compared with PA-824, in words [3, 18]: comparable efficacy to PA-824
log reduction at 100 mg/kg [3, 18]: 1.69 ± 0.07
PAMPA %FA: 85%
PAMPA Log Pe: –4.6 cm/sec
Lung AUC24 ([4]; 10 mg/kg): 5.2 µg·h/g
Lung Cmax ([4]; 10 mg/kg): 1.6 µg/g
AUC ([5]; 10 mg/kg): 2900 ng·h/mL
Cmax ([5]; 10 mg/kg): 1000 ng/mL
bioavailability ([5]; 10 mg/kg): 76%
Vd ([6]; 10 mg/kg): 2 L/kg
clearance ([6]; 10 mg/kg): 44 mL/min/kg
Kp [7, 19]: 1.8
Kp [7, 20]: 1.6
solubility [8]: 104 µg/mL (≈ 279 µM)
logP [9]: 3.6
Papp A→B [10]: 18.6 ×10⁻⁶ cm/s
Papp B→A [10]: 20.7 ×10⁻⁶ cm/s
efflux ratio [10]: 1.1
fraction unbound [11]: 0.55
half-life ([12]; 10 mg/kg): 72 min
half-life [13, 21]: < 60 min
T1/2 (i.v) ([13]; i.v. dosing at 10 mg/kg, 10 mg/kg): 42 min
half-life ([14]; 10 mg/kg): 102 min

CC[C@H]1Oc2nc([N+](=O)[O-])cn2C[C@@H]1NCc1ccc(-c2ccc(OC(F)(F)F)cc2)cc1 [NI-297]
MIC99 [1]: 0.02 µg/mL (≈ 0.0432 µM)
CC50 [2]: > 10 µg/mL
Mean log lung CFU ± SEM [3, 22]: 4.51±0.11 log CFU
Efficacy compared with PA-824, in words [3, 22]: comparable efficacy to PA-824
log reduction at 25 mg/kg [3, 22]: 1.23 to 1.56
PAMPA %FA: 97%
PAMPA Log Pe: –4.1 cm/sec
Plasma free fCmax [16]: 0.1 µg/mL
Lung AUC24 ([4]; 25 mg/kg): 233.4 µg·h/g
Lung Cmax ([4]; 25 mg/kg): 16.3 µg/g
AUC ([5]; 25 mg/kg): 99100 ng·h/mL
Cmax ([5]; 25 mg/kg): 6000 ng/mL
Tmax ([5]; 25 mg/kg): 480 min
bioavailability ([5]; 25 mg/kg): 100%
Vd ([6]; 5 mg/kg): 2.6 L/kg
clearance ([6]; 5 mg/kg): 5 mL/min/kg
Tmax ([7]; 25 mg/kg): 480 min
Kp [7, 23]: 2.4
Kp [7, 24]: 2.7
solubility [8]: < 2 µg/mL
logP [9]: 6
fraction unbound [11]: 0.018
half-life ([12]; 25 mg/kg): 276 min
half-life [13, 25]: 402 min
half-life ([14]; 25 mg/kg): 294 min

O=[N+]([O-])c1cn2c(n1)OC[C@@H](NCc1ccc(OC(F)(F)F)c(O)c1)C2 [NI-147]
MIC99 [1]: 0.03 µg/mL (≈ 0.0802 µM)
Solubility pH 6.8 [17]: 56.0 µg/mL
PAMPA %FA: 43%
PAMPA Log Pe: –5.2 cm/sec
Lung AUC24 ([4]; 25 mg/kg): 2.6 µg·h/g
Lung Cmax ([4]; 25 mg/kg): 0.5 µg/g
AUC ([5]; 25 mg/kg): 20 ng·h/mL
Cmax ([5]; 25 mg/kg): 40 ng/mL
Tmax ([5]; 25 mg/kg): 6 min
bioavailability ([5]; 25 mg/kg): 0.3%
Vd ([6]; 5 mg/kg): 0.4 L/kg
clearance ([6]; 5 mg/kg): 70.8 mL/min/kg
Tmax ([7]; 25 mg/kg): 6 min
logP [9]: 2.4
half-life [13, 25]: 18 min
half-life ([14]; 25 mg/kg): 12 min

CC[C@H]1Oc2nc([N+](=O)[O-])cn2C[C@@H]1NCc1ccc(OC(F)(F)F)cc1 [NI-182]
MIC99 [1]: 0.02 µg/mL (≈ 0.0518 µM)
CC50 [2]: > 10 µg/mL
Mean log lung CFU ± SEM [3, 22]: 4.84±0.14 log CFU
Efficacy compared with PA-824, in words [3, 22]: comparable efficacy to PA-824
Mean log lung CFU ± SEM [3, 18]: 4.81±0.18 log CFU
Efficacy compared with PA-824, in words [3, 18]: significantly (P<0.05) less efficacious than PA-824
Dose dependence of efficacy, in words [3]: no dose-dependent increase in bactericidal activity
log reduction at 25 mg/kg [3, 22]: 1.23 to 1.56
log reduction at 100 mg/kg [3, 18]: 1.26 ± 0.18
PAMPA %FA: 99%
PAMPA Log Pe: –3.8 cm/sec
Plasma free fCmax [16]: 0.3 µg/mL
Lung AUC24 ([4]; 25 mg/kg): 73.2 µg·h/g
Lung Cmax ([4]; 25 mg/kg): 11.4 µg/g
AUC ([5]; 25 mg/kg): 22500 ng·h/mL
Cmax ([5]; 25 mg/kg): 3500 ng/mL
Tmax ([5]; 25 mg/kg): 30 min
bioavailability ([5]; 25 mg/kg): 82%
Vd ([6]; 5 mg/kg): 3 L/kg
clearance ([6]; 5 mg/kg): 15.2 mL/min/kg
Tmax ([7]; 25 mg/kg): 30 min
Kp [7, 23]: 3.3
Kp [7, 24]: 3.3
solubility [8]: 32 µg/mL (≈ 82.8 µM)
logP [9]: 3.05
Papp A→B [10]: 18.3 ×10⁻⁶ cm/s
Papp B→A [10]: 13.9 ×10⁻⁶ cm/s
efflux ratio [10]: 0.8
fraction unbound [11]: 0.087
half-life ([12]; 25 mg/kg): 114 min
half-life [13, 25]: 168 min
half-life ([14]; 25 mg/kg): 120 min
